Test results published in patent US20130217713A1, “PREDICTIVE MARKER FOR EGFR INHIBITOR TREATMENT” (Hoffmann-La Roche Inc., priority 2007, published 2013).
Like-named read-outs stand apart in the source and are kept apart here.

Legend:
advanced NSCLC = conditions: 75 patients with qRT-PCR results
[1] = patients with cancer, 150 mg/day; compared with targeted average plasma concentration; cited from earlier work
NSCLC [2] = conditions: single agent, NSCLC patients after failure of standard therapy for advanced disease; cited from earlier work
NSCLC [3] = conditions: cited from earlier work
NSCLC [4] = conditions: second line therapy of NSCLC; cited from earlier work

SMILES: C#Cc1cccc(Nc2ncnc3cc(OCCOC)c(OCCOC)cc23)c1 [Tarceva, erlotinib]
- PD (advanced NSCLC): 39 (52%) n (%)
- partial response (PR) (advanced NSCLC): 4 (5%) n (%)
- drug levels in plasma [1]: > 500 ng/mL
- survival (NSCLC [2]): significantly prolongs and improves the survival

SMILES: CC(=O)O[C@@]12CO[C@@H]1C[C@H](O)[C@@]1(C)C(=O)[C@H](O)C3=C(C)[C@@H](OC(=O)[C@H](O)[C@@H](NC(=O)OC(C)(C)C)c4ccccc4)C[C@@](O)([C@@H](OC(=O)c4ccccc4)[C@H]21)C3(C)C [docetaxel]
- survival, third-line treatment or beyond (NSCLC [3]; docetaxel as third-line treatment or beyond): no prolongation of survival
- survival (NSCLC [3]; second line after cisplatin-based first-line regimens failed, ECOG 0, 1 or 2): improved survival

SMILES: Nc1nc2[nH]cc(CCc3ccc(C(=O)N[C@@H](CCC(=O)O)C(=O)O)cc3)c2c(=O)[nH]1 [pemetrexed]
- efficacy compared with docetaxel (NSCLC [4]): clinically equivalent efficacy
- side effects compared with docetaxel (NSCLC [4]): significantly fewer side effects
